# ChEMBL document CHEMBL3585316, “Discovery, bioactivity and docking simulation of Vorinostat analogues containing 1,2,4-oxadiazole moiety as potent histone deacetylase inhibitors and antitumor agents” (Bioorg Med Chem, 2015)
# Assays:
# U-937 = assay: Antiproliferative activity against human U937 cells incubated for 72 hrs by MTT assay; format: functional, cell-based; details: U-937, 72 h
# Histone deacetylase 8 = target: T1, Histone deacetylase 8 (Homo sapiens, UniProt Q9BY41); assay: Inhibition of recombinant HDAC8 (unknown origin) incubated for 10 mins using Boc-Lys(acetyl)-AMC fluorogenic substrate by homogeneous fluorescence release assay
# T1 sequence (Q9BY41 whole entry): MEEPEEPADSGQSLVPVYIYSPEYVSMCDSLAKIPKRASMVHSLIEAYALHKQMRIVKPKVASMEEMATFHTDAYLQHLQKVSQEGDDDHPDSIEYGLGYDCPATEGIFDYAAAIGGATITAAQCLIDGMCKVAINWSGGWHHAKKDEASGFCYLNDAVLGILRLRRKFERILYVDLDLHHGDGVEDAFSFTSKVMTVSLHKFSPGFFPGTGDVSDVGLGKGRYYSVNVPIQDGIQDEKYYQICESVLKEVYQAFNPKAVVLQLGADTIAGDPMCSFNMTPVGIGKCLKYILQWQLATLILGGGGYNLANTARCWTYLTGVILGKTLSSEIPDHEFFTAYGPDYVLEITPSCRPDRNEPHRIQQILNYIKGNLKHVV
# Histone deacetylase 1 = Histone deacetylase 1 (Homo sapiens, UniProt Q13547); assay: Inhibition of recombinant HDAC1 (unknown origin) incubated for 10 mins using Boc-Lys(acetyl)-AMC fluorogenic substrate by homogeneous fluorescence release assay
# Histone deacetylase 2 = Histone deacetylase 2 (Homo sapiens, UniProt Q92769); assay: Inhibition of recombinant HDAC2 (unknown origin) incubated for 10 mins using Boc-Lys(acetyl)-AMC fluorogenic substrate by homogeneous fluorescence release assay
# A549 = assay: cells; details: Homo sapiens, A549, 72 h
# Description: Antiproliferative activity against human A549 cells incubated for 72 hrs by MTT assay
# NCI-H661 = assay: Antiproliferative activity against human NCI-H661 cells incubated for 72 hrs by MTT assay; format: functional, cell-based; details: NCI-H661, 72 h
# Histone deacetylase [1] = assay: Inhibition of histone deacetylase (unknown origin) by cell-free assay; format: protein assay, Homo sapiens
# Histone deacetylase [2] = assay: Inhibition of histone deacetylase (unknown origin) by intracellular cell based assay; design: species or system Homo sapiens
# Histone deacetylase 1, sequence (Q13547 whole entry): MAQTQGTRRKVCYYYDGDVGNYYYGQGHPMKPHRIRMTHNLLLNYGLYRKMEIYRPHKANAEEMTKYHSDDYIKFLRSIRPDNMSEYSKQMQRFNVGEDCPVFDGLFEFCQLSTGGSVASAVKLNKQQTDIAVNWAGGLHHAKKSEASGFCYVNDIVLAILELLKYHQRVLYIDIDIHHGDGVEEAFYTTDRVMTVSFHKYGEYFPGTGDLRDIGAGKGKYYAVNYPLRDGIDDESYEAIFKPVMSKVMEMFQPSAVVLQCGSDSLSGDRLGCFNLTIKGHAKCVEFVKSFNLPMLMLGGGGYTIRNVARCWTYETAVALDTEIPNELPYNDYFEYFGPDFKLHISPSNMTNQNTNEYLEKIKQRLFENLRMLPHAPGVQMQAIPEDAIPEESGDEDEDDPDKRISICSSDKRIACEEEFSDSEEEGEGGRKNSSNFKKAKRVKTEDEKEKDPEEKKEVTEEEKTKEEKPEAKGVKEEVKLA
# Histone deacetylase 2, sequence (Q92769 whole entry): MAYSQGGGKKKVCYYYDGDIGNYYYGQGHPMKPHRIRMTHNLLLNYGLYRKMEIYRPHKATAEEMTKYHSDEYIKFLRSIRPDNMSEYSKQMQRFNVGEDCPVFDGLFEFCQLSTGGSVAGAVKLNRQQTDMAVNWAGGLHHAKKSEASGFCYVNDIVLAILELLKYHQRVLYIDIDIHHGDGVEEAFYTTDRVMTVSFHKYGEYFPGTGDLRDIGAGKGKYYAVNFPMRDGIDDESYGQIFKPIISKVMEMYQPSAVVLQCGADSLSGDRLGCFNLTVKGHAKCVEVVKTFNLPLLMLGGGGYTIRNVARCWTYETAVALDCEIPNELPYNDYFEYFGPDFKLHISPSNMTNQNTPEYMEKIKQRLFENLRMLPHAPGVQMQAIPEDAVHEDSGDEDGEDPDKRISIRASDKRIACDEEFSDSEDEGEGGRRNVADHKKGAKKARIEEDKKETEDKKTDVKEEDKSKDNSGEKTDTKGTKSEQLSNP
IC50 (U-937),IC50 (Histone deacetylase 8),IC50 (Histone deacetylase 1),IC50 (Histone deacetylase 2),IC50 (A549),IC50 (NCI-H661),IC50 (Histone deacetylase [1]),IC50 (Histone deacetylase [2]),Structure (SMILES)
1.96 µM,1.03 µM,8.25 µM,2.79 µM,28.8 µM,6.39 µM,–,–,O=C(CCCCCCc1nc(-c2ccc(C(F)(F)F)cc2)no1)C(F)(F)F
3.68 µM,3.17 µM,> 10 µM,8.15 µM,> 100 µM,17.5 µM,–,–,O=C(CCCCCCc1nc(-c2ccc([N+](=O)[O-])cc2)no1)C(F)(F)F
2.07 µM,> 10 µM,1.05 µM,3.16 µM,> 100 µM,15.4 µM,–,–,Nc1ccccc1NC(=O)CCCCCCc1nc(-c2cccnc2)no1
0.73 µM,> 10 µM,0.21 µM,0.73 µM,23.9 µM,0.96 µM,–,–,Nc1ccccc1NC(=O)CCCCCCc1nc(-c2ccccc2)no1
2.87 µM,> 10 µM,1.92 µM,7.93 µM,14 µM,15.3 µM,–,–,O=C(CCCCCCc1nc(-c2ccc(C(F)(F)F)cc2)no1)NO
6.91 µM,> 10 µM,4.13 µM,> 10 µM,> 100 µM,8.31 µM,–,–,Nc1ccccc1NC(=O)CCCCCCc1nc(-c2ccccc2Cl)no1
1.59 µM,> 10 µM,0.76 µM,2.87 µM,28.7 µM,6.18 µM,–,–,Nc1ccccc1NC(=O)CCCCCCc1nc(-c2cccs2)no1
5.28 µM,> 10 µM,3.04 µM,> 10 µM,> 100 µM,29.8 µM,–,–,Nc1ccccc1NC(=O)CCCCCCc1nc(-c2ccc(C(F)(F)F)cc2)no1
0.56 µM,0.83 µM,3.98 µM,0.92 µM,9.58 µM,6.43 µM,–,–,O=C(CCCCCCc1nc(-c2cccc([N+](=O)[O-])c2)no1)C(F)(F)F
1.17 µM,1.86 µM,9.63 µM,4.53 µM,35.9 µM,5.05 µM,–,–,COc1ccc(-c2noc(CCCCCCC(=O)C(F)(F)F)n2)cc1
3.65 µM,> 10 µM,2.18 µM,> 10 µM,13.5 µM,20.4 µM,–,–,COc1ccc(-c2noc(CCCCCCC(=O)NO)n2)cc1
2.69 µM,> 10 µM,0.91 µM,3.85 µM,19.5 µM,7.99 µM,–,–,COc1ccc(-c2noc(CCCCCCC(=O)Nc3ccccc3N)n2)cc1
3.08 µM,> 10 µM,0.88 µM,2.57 µM,31.2 µM,9.53 µM,–,–,Nc1ccccc1NC(=O)CCCCCCc1nc(-c2ccc(F)cc2)no1
0.41 µM,0.76 µM,5.32 µM,1.05 µM,7.68 µM,0.52 µM,–,–,O=C(CCCCCCc1nc(-c2ccccc2)no1)C(F)(F)F
0.98 µM,> 10 µM,0.68 µM,5.19 µM,11.9 µM,17.3 µM,–,–,O=C(CCCCCCc1nc(-c2ccc(Cl)cc2)no1)NO
0.46 µM,8.39 µM,0.14 µM,0.68 µM,9.17 µM,0.41 µM,–,–,Cc1ccc(-c2noc(CCCCCCC(=O)Nc3ccccc3N)n2)cc1
3.73 µM,3.19 µM,> 10 µM,7.32 µM,> 100 µM,18.7 µM,–,–,Cc1ccc(-c2noc(CCCCCCC(=O)C(F)(F)F)n2)cc1

IC50 (U-937),IC50 (Histone deacetylase 8),IC50 (Histone deacetylase 1),IC50 (Histone deacetylase 2),IC50 (A549),IC50 (NCI-H661),IC50 (Histone deacetylase [1]),IC50 (Histone deacetylase [2]),Structure (SMILES)
10.2 µM,> 10 µM,8.67 µM,> 10 µM,> 100 µM,> 100 µM,–,–,Nc1ccccc1NC(=O)CCCCCCc1nc(-c2ccc([N+](=O)[O-])cc2)no1
–,–,–,–,–,–,0.6 µM,1.8 µM,O=C(CCCCCc1nc2cc3ccccc3cc2[nH]1)C(F)(F)F
1.25 µM,2.05 µM,0.38 µM,1.17 µM,7.08 µM,17.3 µM,–,–,O=C(CCCCCCc1nc(-c2ccccc2)no1)NO
2.15 µM,> 10 µM,0.82 µM,5.19 µM,20.2 µM,7.29 µM,–,–,Nc1ccccc1NC(=O)CCCCCCc1nc(-c2cccc([N+](=O)[O-])c2)no1
0.29 µM,2.56 µM,0.07 µM,0.23 µM,5.31 µM,3.09 µM,–,–,O=C(CCCCCCc1nc(-c2ccc([N+](=O)[O-])cc2)no1)NO
2.35 µM,7.65 µM,> 10 µM,> 10 µM,> 100 µM,12.7 µM,–,–,O=C(CCCCCCc1nc(-c2ccc(F)cc2)no1)C(F)(F)F
1.16 µM,2.38 µM,0.35 µM,1.56 µM,10.8 µM,16.1 µM,–,–,O=C(CCCCCCc1nc(-c2cccc([N+](=O)[O-])c2)no1)NO
4.67 µM,2.08 µM,> 10 µM,8.56 µM,18.5 µM,11.9 µM,–,–,O=C(CCCCCCc1nc(-c2ccc(Cl)cc2)no1)C(F)(F)F
1.28 µM,0.95 µM,5.17 µM,1.63 µM,11.7 µM,7.53 µM,–,–,O=C(CCCCCCc1nc(-c2cccs2)no1)C(F)(F)F
0.55 µM,–,–,–,–,–,–,–,Nc1ccccc1NC(=O)c1ccc(CNC(=O)OCc2cccnc2)cc1 [ENTINOSTAT]
0.92 µM,0.71 µM,7.65 µM,1.58 µM,6.16 µM,1.25 µM,–,–,O=C(CCCCCCc1nc(-c2ccccc2Cl)no1)C(F)(F)F
4.36 µM,> 10 µM,1.56 µM,6.29 µM,13.8 µM,11.2 µM,–,–,Nc1ccccc1NC(=O)CCCCCCc1nc(-c2ccc(Cl)cc2)no1
0.75 µM,3.65 µM,0.19 µM,1.25 µM,8.87 µM,10.3 µM,–,–,O=C(CCCCCCc1nc(-c2ccccc2Cl)no1)NO
0.32 µM,1.92 µM,0.12 µM,0.51 µM,4.37 µM,9.46 µM,–,–,O=C(CCCCCCc1nc(-c2cccs2)no1)NO
0.35 µM,1.83 µM,0.08 µM,0.39 µM,5.34 µM,6.02 µM,–,–,O=C(CCCCCCc1nc(-c2cccnc2)no1)NO
1.36 µM,5.39 µM,0.49 µM,2.78 µM,5.81 µM,15.8 µM,–,–,Cc1ccc(-c2noc(CCCCCCC(=O)NO)n2)cc1
1.93 µM,8.76 µM,1.15 µM,6.26 µM,5.77 µM,19.4 µM,–,–,O=C(CCCCCCc1nc(-c2ccc(F)cc2)no1)NO
